Structures can show the parent of a compound that is named as a salt. Where two headings read alike, the source gives them in different places. A value given as a limit tells only on which side of the number the result lay.

These results are taken from patent US20250304559A1, “Ether-Linked Antiviral Compounds” (Pfizer Inc., priority 2021, published 2025).

Assay [1] relates to SARS-CoV-2 (USA_WA1/2020). The assay is described as follows: Antiviral Activity from SARS-CoV-2 Infection (cytopathic effect, Cell Titer-Glo). The assay is classed as cell-based. The following applies: Severe acute respiratory syndrome coronavirus 2, Vero C1008, 72 h, VeroE6 cells enriched for hACE2, MOI 0.002, 3-day incubation; tested alone or with P-gp inhibitor CP-100356 2 μM (table does not say which); read-out: Geometric Mean EC50.

The target in a further assay is T1, SARS-CoV-2 3CL protease (Severe acute respiratory syndrome coronavirus 2, UniProt P0DTD1).
T1 construct: measures the activity of full-length SARS-CoV-2 3CL protease
The assay is described as follows: SARS-CoV-2 Coronavirus 3C Protease FRET Assay. The settings on record: Morrison equation fit, 15 nM enzyme, 25 μM peptide substrate. It counts as biochemical.

The mark [2] stands for this setting: Examples 14-78 and 114 (second head of Table 2), read-out: Geometric Mean Ki (nM) IC50.
Where [3] appears, read: Examples 1-13, 60 minutes at 23° C., read-out: Geometric Mean Ki.

Turning to `CC(C)[C@H](NC(=O)C(F)(F)F)C(=O)N1C[C@H]2[C@@H]([C@H]1C(=O)N[C@@H](C[C@@H]1CCNC1=O)C(=O)COc1ccccc1F)C2(C)C` [Example 47, (1R,2S,5S)-N-{(2S)-4-(2-fluorophenoxy)-3-oxo-1-[(3S)-2-oxopyrrolidin-3-yl]butan-2-yl}-6,6-dimethyl-3-[N-(trifluoroacetyl)-L-valyl]-3-azabicyclo[3.1.0]hexane-2-carboxamide], the EC50 in assay [1] amounted to 59.7 nM. The Ki at SARS-CoV-2 3CL protease (setting [2]) came out at 8.58 nM.
The matching figures for `CCC([C@H](NC(=O)C(F)(F)F)C(=O)N1C[C@H]2[C@@H]([C@H]1C(=O)N[C@@H](C[C@@H]1CCNC1=O)C(=O)COc1ccc(F)cc1F)C2(C)C)C(F)(F)F` (stereo in doubt) [Example 57, (1R,2S,5S)-N-{(2S)-4-(2,4-difluorophenoxy)-3-oxo-1-[(3S)-2-oxopyrrolidin-3-yl]butan-2-yl}-6,6-dimethyl-3-[3′,3′,3′-trifluoro-N-(trifluoroacetyl)-L-isoleucyl]-3-azabicyclo[3.1.0]hexane-2-carboxamide]: 275 nM and 17.3 nM.
On to `CC(C)[C@H](NS(=O)(=O)C(F)(F)F)C(=O)N1C[C@H]2[C@@H]([C@H]1C(=O)N[C@@H](C[C@@H]1CCNC1=O)C(=O)COc1cc(C(F)(F)F)nn1C)C2(C)C` [Example 11, (1R,2S,5S)-6,6-dimethyl-N-{(2S)-4-{[1-methyl-3-(trifluoromethyl)-1H-pyrazol-5-yl]oxy}-3-oxo-1-[(3S)-2-oxopyrrolidin-3-yl]butan-2-yl}-3-{N-[(trifluoromethyl)sulfonyl]-L-valyl}-3-azabicyclo[3.1.0]hexane-2-carboxamide], for which the 50% effective concentration (EC50) in assay [1] is 2030 nM. The Ki at SARS-CoV-2 3CL protease (setting [3]) is 13.5 nM.
For the molecule `CC(C)[C@H](NC(=O)C(F)(F)F)C(=O)N1C[C@H]2[C@@H]([C@H]1C(=O)N[C@@H](C[C@@H]1CCNC1=O)C(=O)COc1cc(C(F)(F)F)nn1C)C2(C)C` [Example 9, (1R,2S,5S)-6,6-dimethyl-N-{(2S)-4-{[1-methyl-3-(trifluoromethyl)-1H-pyrazol-5-yl]oxy}-3-oxo-1-[(3S)-2-oxopyrrolidin-3-yl]butan-2-yl}-3-[N-(trifluoroacetyl)-L-valyl]-3-azabicyclo[3.1.0]hexane-2-carboxamide, trifluoroacetate salt], in assay [1], the EC50 was determined as 265 nM. For the same molecule, the Ki at SARS-CoV-2 3CL protease (setting [3]) stood at 42.8 nM.
Consider `CC(C)[C@H](NS(=O)(=O)C(F)(F)F)C(=O)N1C[C@H]2[C@@H]([C@H]1C(=O)N[C@@H](C[C@@H]1CC(=O)NC1=O)C(=O)COc1ccc(F)cc1F)C2(C)C` [Example 49, (1R,2S,5S)-N-{(2S)-4-(2,4-difluorophenoxy)-1-[(3R)-2,5-dioxopyrrolidin-3-yl]-3-oxobutan-2-yl}-6,6-dimethyl-3-[N-(trifluoromethanesulfonyl)-L-valyl]-3-azabicyclo[3.1.0]hexane-2-carboxamide], for which, in assay [1], the EC50 is 2010 nM. In addition, the Ki on SARS-CoV-2 3CL protease (setting [2]) is 9.93 nM.
With `CC(C)(C)[C@H](NS(=O)(=O)C(F)(F)F)C(=O)N1C[C@H]2[C@@H]([C@H]1C(=O)N[C@@H](C[C@@H]1CCNC1=O)C(=O)COc1cc(F)ccc1F)C2(C)C` [Example 34, (1R,2S,5S)-N-{(2S)-4-(2,5-difluorophenoxy)-3-oxo-1-[(3S)-2-oxopyrrolidin-3-yl]butan-2-yl}-6,6-dimethyl-3-[3-methyl-N-(trifluoromethanesulfonyl)-L-valyl]-3-azabicyclo[3.1.0]hexane-2-carboxamide], the EC50 in assay [1] was 86 nM. The Ki at SARS-CoV-2 3CL protease (setting [2]) came out at 6.95 nM.
The like results for `Cc1noc(OCC(=O)[C@H](C[C@@H]2CCNC2=O)NC(=O)[C@@H]2[C@@H]3[C@H](CN2C(=O)[C@@H](NC(=O)C(F)(F)F)C(C)C)C3(C)C)n1` [Example 76, (1R,2S,5S)-6,6-dimethyl-N-{(2S)-4-[(3-methyl-1,2,4-oxadiazol-5-yl)oxy]-3-oxo-1-[(3S)-2-oxopyrrolidin-3-yl]butan-2-yl}-3-[N-(trifluoroacetyl)-L-valyl]-3-azabicyclo[3.1.0]hexane-2-carboxamide] were, in that order, above 100000 nM and 3840 nM.
The like results for `CC(C)c1cccc(OCC(=O)[C@H](C[C@@H]2CCNC2=O)NC(=O)[C@@H]2[C@@H]3[C@H](CN2C(=O)[C@@H](NC(=O)C(F)(F)F)C(C)C)C3(C)C)c1` [Example 56, (1R,2S,5S)-6,6-dimethyl-N-{(2S)-3-oxo-1-[(3S)-2-oxopyrrolidin-3-yl]-4-[3-(propan-2-yl)phenoxy]butan-2-yl}-3-[N-(trifluoroacetyl)-L-valyl]-3-azabicyclo[3.1.0]hexane-2-carboxamide] were, in that order, 119 nM and 14.4 nM.
For the molecule `CC(C)[C@H](NS(=O)(=O)C(F)(F)F)C(=O)N1C[C@H]2[C@@H]([C@H]1C(=O)N[C@@H](C[C@@H]1CCNC1=O)C(=O)COc1ccc(F)cc1F)C2(C)C` [Example 4, (1R,2S,5S)-N-{(2S)-4-(2,4-difluorophenoxy)-3-oxo-1-[(3S)-2-oxopyrrolidin-3-yl]butan-2-yl}-6,6-dimethyl-3-{N-[(trifluoromethyl)sulfonyl]-L-valyl}-3-azabicyclo[3.1.0]hexane-2-carboxamide], the EC50 in assay [1] turned out to be 395 nM. Moreover, at SARS-CoV-2 3CL protease (setting [3]), the Ki stood at 6.34 nM.
